Reference: US10752587B2, “Homobispiperidinyl derivatives as liver X receptor beta agonists, compositions and their use” (Merck Sharp & Dohme Corp., priority 2015, dated 2020)
Read-outs that look alike come from different tables or passages of the source.

Experiments:
[1] = biological target: T1, glutathione-S-transferase (GST) tagged LXRbeta LBD (ligand binding domain) (Homo sapiens, UniProt P55055); assay: LanthaScreen TR-FRET Liver X Receptor Coactivator Assay, co-activator recruitment to LXRbeta LBD; type: biochemical; details: for EC50: potency (Inflection Point, IP), co-activator recruitment to LXRbeta LBD, in relation to T0901317, read-out: LXR beta IP; for Emax: read-out: LXR beta Activity @ max dose (%)
T1 construct: purchased Invitrogen pv4658.pps
T1 sequence (P55055 222-460 limits assumed): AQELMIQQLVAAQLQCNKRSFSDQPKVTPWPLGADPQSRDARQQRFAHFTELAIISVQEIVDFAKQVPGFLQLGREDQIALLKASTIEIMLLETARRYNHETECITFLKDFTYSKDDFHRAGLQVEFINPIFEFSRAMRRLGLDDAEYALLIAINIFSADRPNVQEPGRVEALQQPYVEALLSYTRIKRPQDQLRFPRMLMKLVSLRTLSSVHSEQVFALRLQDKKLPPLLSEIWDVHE
Method in brief: (§1)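 Efficacy (Emax) and inflection-point potency were scaled to reference agonist T0901317, acting on both LXR subtypes. Ligand-driven coactivator peptide recruitment was detected by TR-FRET after room-temperature incubation with terbium anti-GST antibody.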

[2] = biological target: T2, glutathione-S-transferase (GST) tagged LXRalpha LBD (ligand binding domain) (Homo sapiens, UniProt Q13133); assay: LanthaScreen TR-FRET Liver X Receptor Coactivator Assay, co-activator recruitment to LXRalpha LBD; type: biochemical; details: for LXR alpha IP (nM) / EC50: potency (Inflection Point, IP), co-activator recruitment to LXRalpha LBD, in relation to T0901317; for Emax: read-out: LXR alpha Activity @ max dose (%); for EC50: read-out: LXR alpha IP
T2 construct: purchased Invitrogen pv4655
T2 sequence (Q13133 209-447 limits assumed): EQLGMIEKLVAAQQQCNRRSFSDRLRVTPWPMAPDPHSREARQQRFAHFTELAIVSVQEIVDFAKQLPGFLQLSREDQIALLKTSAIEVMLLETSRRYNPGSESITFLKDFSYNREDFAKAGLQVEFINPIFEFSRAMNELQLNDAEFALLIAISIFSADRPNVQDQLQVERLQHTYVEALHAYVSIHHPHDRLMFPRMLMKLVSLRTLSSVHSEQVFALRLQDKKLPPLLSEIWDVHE
Method in brief: as §1

[3] = efficacy at max dose, in relation to reference dual agonist T0901317

Row | SMILES | LXR beta Activity @ max dose (%) [1, 3] [%] | EC50 [1] [nM] | LXR alpha Activity @ max dose (%) [2, 3] [%] | LXR alpha IP (nM) [2] | Emax [1, 3] [%] | Emax [2, 3] [%] | EC50 [2] [nM] | Emax [1] [%] | Emax [2] [%]
1 | Cc1cc(N2CCC(CC3CCN(C(=O)[C@](O)(c4cccc(Cl)c4)C(F)(F)F)CC3)CC2)ccc1C(=O)N(C)C [Example 2-159, 4-[4-({1-[(2R)-2-(3-chloro-phenyl)-3,3,3-trifluoro-2-hydroxy-propanoyl]piperidin-4-yl}methyl)piperidin-1-yl]-N,N,2-trimethyl-benzamide] |  | 21 |  |  | 65 | 22 | 156 |  | 
2 | COc1cc(F)cc([C@@](O)(C(=O)N2CC(CC3CCN(c4ccc(C(=O)N(C)C)c(Cl)c4)CC3)C2)C(F)(F)F)c1 [Example 2-61, 2-chloro-N,N-dimethyl-4-[4-({1-[(2R)-3,3,3-trifluoro-2-(3-fluoro-5-methoxyphenyl)-2-hydroxy-propanoyl]azetidin-3-yl}methyl)piperidin-1-yl]benzamide] |  | 7 |  |  | 74 | 21 | 277 |  | 
3 | Cc1nc(N2CCC(CC3CCN(C(=O)C(O)(c4cccc(Cl)c4)C(F)(F)F)CC3)CC2)ccc1C(=O)N(C)C (stereo not drawn) [Example 7-7, 6-[4-({1-[2-(3-chlorophenyl)-3,3,3-trifluoro-2-hydroxypropanoyl]piperidin-4-yl}methyl)piperidin-1-yl]-N,N,2-trimethylpyridine-3-carboxamide] |  | 36 |  |  |  |  | 508 | 95 | 24
4 | Cc1cc(N2CCC(CC3CN(C(=O)[C@](O)(c4cc(F)cc(Cl)c4)C(F)(F)F)C3)CC2)ccc1C(=O)N(C)C [Example 2-81, 4-[4-({1-[(2R)-2-(3-chloro-5-fluorophenyl)-3,3,3-trifluoro-2-hydroxy-propanoyl]azetidin-3-yl}methyl)piperidin-1-yl]-N,N,2-trimethyl-benzamide] |  | 39 |  |  | 103 | 40 | 798 |  | 
5 | COc1cccc([C@@](N)(C(=O)N2CCC(CC3CCN(c4ccc(C(=O)N(C)C)c(Cl)c4)CC3)CC2)C(F)(F)F)c1 [Example 2-103, 4-[4-({1-[(2R)-2-amino-3,3,3-trifluoro-2-(3-methoxyphenyl)propanoyl]piperidin-4-yl}methyl)piperidin-1-yl]-2-chloro-N,N-dimethyl-benzamide] |  | 181 |  | NO IP | 16 | 0 |  |  | 
6 | Cc1cc(N2CCC(CC3CCN(C(=O)OC(C)(C)C)CC3)CC2)ccc1C(=O)N(C)C [Example 1-2, tert-butyl 4-({1-[4-(dimethylcarbamoyl)-3-methylphenyl]piperidin-4-yl}methyl)piperidine-1-carboxylate] |  | 240 |  | NO IP | 58 | 13 |  |  | 

Continued, in another order:

Row | LXR beta Activity @ max dose (%) [1, 3] [%] | EC50 [1] [nM] | LXR alpha Activity @ max dose (%) [2, 3] [%] | LXR alpha IP (nM) [2] | Emax [1, 3] [%] | Emax [2, 3] [%] | EC50 [2] [nM] | SMILES | Emax [1] [%] | Emax [2] [%]
7 | 60 | 19 | 7 | NO IP |  |  |  | CNC(=O)c1ccc(N2CCC(CC3CCN(C(=O)[C@](O)(c4cccc(OC)c4)C(F)(F)F)CC3)CC2)cc1Cl [Example 7-127, 2-chloro-N-methyl-4-[4-({1-[(2R)-3,3,3-trifluoro-2-hydroxy-2-(3-methoxyphenyl)propanoyl]piperidin-4-yl}methyl)piperidin-1-yl]benzamide] |  | 
8 |  | 16 |  |  | 123 | 39 | 438 | COc1ccccc1C1(C(=O)N2CCC(CC3CCN(c4ccc(C(=O)N(C)C)c(Cl)n4)CC3)CC2)CCC1 [Example 7-57, 2-chloro-6-{4-[(1-{[1-(2-methoxyphenyl)cyclobutyl]carbonyl}piperidin-4-yl)methyl]piperidin-1-yl}-N,N-dimethylpyridine-3-carboxamide] |  | 
9 |  | 6 |  |  | 102 | 39 | 158 | CN(C)C(=O)c1ccc(N2CCC(CC3CCN(C(=O)[C@](O)(c4ccccc4)C(F)(F)F)CC3)CC2)nc1Cl [Example 7-63, 2-chloro-N,N-dimethyl-6-[4-({1-[(2R)-3,3,3-trifluoro-2-hydroxy-2-phenylpropanoyl]piperidin-4-yl}methyl)piperidin-1-yl]pyridine-3-carboxamide] |  | 
10 |  | 4 |  |  | 76 | 38 | 32 | NC(=O)c1ccc(N2CCC(CC3CCN(C(=O)[C@](O)(c4cccc(Cl)c4)C(F)(F)F)CC3)CC2)cc1Cl [Example 12-5, 2-chloro-4-[4-({1-[(2R)-2-(3-chlorophenyl)-3,3,3-trifluoro-2-hydroxypropanoyl]-piperidin-4-yl}-methyl)piperidin-1-yl]benzamide] |  | 
11 |  | 4 |  | NO IP | 67 | 3 |  | CN(CCn1cncn1)C(=O)c1ccc(N2CCC(CC3CCN(C(=O)[C@](O)(c4cc(Cl)cc(Cl)c4)C(F)(F)F)CC3)CC2)cc1Cl [Example 4-26, 2-chloro-4-[4-({1-[(2R)-2-(3,5-dichlorophenyl)-3,3,3-trifuoro-2-hydroxypropanoyl]piperidin-4-yl}methyl)piperidin-1-yl]-N-methyl-N-[2-(1H-1,2,4-triazol-1-yl)ethyl]benzamide] |  | 
12 |  | 35 |  | NO IP | 38 | 0 |  | O=C(c1ccc(N2CCC(CC3CCN(C(=O)[C@](O)(c4cc(Cl)cc(Cl)c4)C(F)(F)F)CC3)CC2)cc1Cl)N1CC[C@@H](O)C1 [Example 4-22, (3R)-1-({2-chloro-4-[4-({1-[(2R)-2-(3,5-dichloro-phenyl)-3,3,3-trifluoro-2-hydroxypropanoyl]piperidin-4-yl}methyl)piperidin-1-yl]phenyl}carbonyl) pyrrolidin-3-ol] |  | 
13 |  | 66 |  | NO IP | 65 | 8 |  | COc1cccc([C@@](O)(C(=O)N2CCC(CC3(C)CCN(c4ccc(C(=O)N(C)C)c(C)n4)CC3)CC2)C(F)(F)F)c1 [Example 7-16, N,N,2-trimethyl-6-[4-methyl-4-({1-[(2R)-3,3,3-trifluoro-2-hydroxy-2-(3-methoxyphenyl)propanoyl]piperidin-4-yl}methyl)piperidin-1-yl]pyridine-3-carboxamide] |  | 
14 |  | 38 |  |  | 78 | 39 | 331 | C[C@H]1CCCN1C(=O)c1ccc(N2CCC(CC3CCN(C(=O)[C@](O)(c4ccccc4)C(F)(F)F)CC3)CC2)cc1Cl [Example 4-6, (2R)-3-(4-{[1-(3-chloro-4-{[(2S)-2-methyl-pyrrolidin-1-yl]carbonyl}phenyl)piperidin-4-yl]methyl}piperidin-1-yl)-1,1,1-trifluoro-3-trifluoro-3-oxo-2-phenylpropan-2-ol] |  | 
15 |  | 29 |  |  | 73 | 30 | 270 | CC(C)N(C)C(=O)c1ccc(N2CCC(CC3CCN(C(=O)[C@](O)(c4ccccc4)C(F)(F)F)CC3)CC2)cc1Cl [Example 4-2, 2-chloro-N-methyl-N-(1-methylethyl)-4-[4-({1-[(2R)-3,3,3-trifluoro-2-hydroxy-2-phenyl-propanoyl]piperidin-4-yl}methyl)piperidin-1-yl]benzamide] |  | 
